Results published in patent publication US20090156644A1, “Use of thiazole derivatives and analogues in the treatment of cancer” (priority 2005, published 2009).

Tests used:
MDA-MB-231 cells = assay: Test A cell proliferation assay (FFA/linolenic acid stimulated, S-phase by flow cytometry); type: cell-based, human; conditions: linolenic acid 100 μM, 24 hours; Compounds X and Y 10 μM, Compound Z 40 μM; FIGS. 1c, 2A-2C
Method: Dulbecco's modified Eagle's medium (D-MEM)+1000 mg/L Glucose+GlutaMAX™1+Pyruvate (Gibco #21885-025)
PEST (100 U/ml penicillin, 100 ug/ml streptomycin, Gibco 15140-122) CyStain PI absolute T Kit (Partec #05-5023) Linolenic acid 99%, L2376 from Sigma Aldrich Dimethyl sulfoxide (DMSO)
Cytomics™ FC500 Flow Cytometer with CXP software (Beckman Coulter) MDA-MB-231 cells
MDA-MB-231 cells were cultured in the propagation media D-MEM+1000 mg/L Glucose+GlutaMAX™1+Pyruvate supplemented with 10% V/V Foetal Bovine Serum and PEST (100 U/ml penicillin, 100 μg/mL streptomycin). Cells were seeded in 6 well plates to a density of 300 000 cells/well in propagation media. After 24 hours, media was replaced with serum free D-MEM media.
Linolenic acid was diluted in DMSO to a concentration of 100 mM and added to the culture media to a final concentration of 100 μM.
Compounds were as dissolved in DMSO to a concentrations of 10 mM (Compounds of Examples 95 and 6 (Compound X and Compound Y, respectively)) and 40 mM (Compound of Example 4 (Compound Z)) and added to the culture media to a final concentration of 10 μM (X and Y) and 40 μM (Z) respectively.
After 24 hours in serum free media DMEM, linolenic acid (to a final concentration of […]) and compounds to be screened for activity were added to a final concentration of 10 μM (Compounds X and Y) and 40 μM (Compound Z) respectively. Final DMSO concentration was kept at 0.2% in all wells. After 24 hours of stimulation, cells were harvested and propidium iodine stained using a CyStain PI absolute T Kit according to manufacturer's recommendations. Cells were subsequently analyzed using a Cytomics™ FC500 Flow Cytometer with CXP software (Beckman Coulter) for cell cycle distribution. Cells were incubated with or without linolenic acid (LA) and the Compounds X, Y and Z for 24 hours at indicated concentrations. Cells in S-phase from untreated sample were set to 100% in each experiment.

[1] = test system: MDA-MB-231 human breast cancer cells; assay: Test B in vivo mouse model, tumor histology; set-up: species or system Athymic BALB/cA nude mice; conditions: 1 mg/kg intraperitoneal once daily for 9 days; for cell density in the interior of the tumor section / cells displaying macrophage/monocyte morphology in the interior of the tumor section: hematoxylin stained cryosections, versus vehicle
Method: week old Athymic BALB/cA nude mice were delivered from Taconic (Denmark) and kept under barrier conditions for 1 week acclimatisation. At 6 weeks, 17 mice were injected subcutaneously on the flank with 1.8×10^6 MDA-MB-231 human breast cancer cells (LGC Promochem-ATCC) in a 50/50 v/v solution of phosphate buffered saline (PBS) (Gibco 10010-015, Invitrogen) Matrigel HC (BD Biosciences).
2 mice were sacrificed and the tumors dissected and examined. 2 groups of 7 mice each were treated once daily by intraperitoneal injections of 1 mg/kg bodyweight of the compound of Example 6 (Compound Y) in PBS/1% v/v dimethylsufoxide or vehicle control respectively for 9 days. The mice were sacrificed by cervical dislocation and tumors were dissected.
The tumor tissue were fixated overnight in PBS (containing 4% w/v paraformaldehyde (Scharlau PA0095, Sharlau Chemie SA, Spain) at +4° C. The tumor tissue were then cryopreserved by 24 hour incubation in PBS containing 30% w/v sucrose (BDH #102745C (www.vwr.com) at +4° C. and embedded in Tissue-Tek embedding media (Sakura Finetek Europa BV, Netherlands). 10 μm cryosections were generated an stained with Mayers Hematoxylin (Dako) for 5 min and destained for 3×10 minutes in tap water. Slides were mounted using Dako faramount aqueous mounting medium and examined using a Nikon Eclipse TS 100 microscope documented using a Nikon coolpix 4500.
The tumors from mice treated with test compound and vehicle were analyzed for morphology by microscopic examination of hematoxylin stained cryosections.

| Compound | antagonism of free fatty acid stimulated cell proliferation (MDA-MB-231 cells) | cells displaying fibroblast morphology in the interior of the tumor section ([1]; hematoxylin stained cryosection, 20× magnification) | cell density in the interior of the tumor section [1] | cells displaying macrophage/monocyte morphology in the interior of the tumor section [1] | cell density in the interior of the tumor section ([1]; listed as test compound) | cells displaying macrophage/monocyte morphology in the interior of the tumor section ([1]; listed as test compound) |
| --- | --- | --- | --- | --- | --- | --- |
| O=C1NC(=Nc2ccccn2)SC1Cc1ccc(F)cc1 (centres unmarked) [Compound X, 5-(4-Fluorobenzyl)-2-(pyridin-2-ylimino)thiazolidin-4-one] | able to antagonize free fatty acid stimulated cell proliferation |  |  |  |  |  |
| Cc1ccc(N=C2NC(=O)C(Cc3cccc(C(F)(F)F)c3)S2)cc1 (centres unmarked) [Compound Z, 5-(3-(Trifluoromethyl)benzyl)-2-(p-tolylimino)thiazolidin-4-one] | able to antagonize free fatty acid stimulated cell proliferation |  |  |  |  |  |
| O=C1NC(=Nc2ccc(Cl)cc2)SC1Cc1cccc(C(F)(F)F)c1 (centres unmarked) [Compound Y, 5-(3-(Trifluoromethyl)benzyl)-2-(4-chlorophenylimino)thiazolidin-4-one] | able to antagonize free fatty acid stimulated cell proliferation | lack of cells displaying fibroblast morphology | low cell density | accumulation of cells displaying morphology indicative of macrophage/monocyte | markedly reduced | a frequent finding |
